The numbers were not newly measured in article PMC3954986 (Chemmedchem, 2013), which cites them from elsewhere.

The test system of the data set is PLpro. The conditions noted are these: cited from earlier work.

With `Nc1nc2nc[nH]c2c(=S)[nH]1` [Inhibitor 6TG, 6‐thioguanine], the IC50 was 5 to 20 µM. Regarding `Sc1ncnc2nc[nH]c12` [Inhibitor 6MP, 6‐mercaptopurine], the concentration for half-maximal inhibition (IC50) was 5 to 20 µM.

As usually defined, the IC50 is the point on the concentration scale where inhibition reaches its midpoint.
